From paper PMC11667226 (Theranostics, 2025)
Non-standard residues stand in square brackets, D forms with d. Residues, ends and D or L forms follow the SMILES beside them. *: point of attachment. X1 = CC1(C)C(=CC=CC=CC=CC2=[N+](CCCCCC(=O)*)c3ccc4ccccc4c3C2(C)C)N(CCCCS(=O)(=O)[O-])c2ccc3ccccc3c21; Cha = N[C@@H](CC1CCCCC1)C(=O)O

Tested on: oral and oropharyngeal squamous cell carcinoma (OSCC, OPSCC)
Assay: Sensitivity of FG001 optical imaging for tumor detection, verified by histology
Format: in vivo, human
Details: 16 patients with OSCC/OPSCC; FG001 36, 16 or 4 mg i.v. the evening prior to surgery; 11 optically guided biopsies and 5 cross-section samples
Procedure: For 11 out of 16 patients, a single biopsy was sampled from the resected tumor specimen ex-vivo on the back-table from a region with a bright fluorescence presented by the imaging system. For the remaining 5 patients, the tumors were cross-sectioned for detailed optical imaging and histopathological processing (see next section). The back-table imaging was performed with the same settings (Image profile: NIR_highcontrast or NIR_contrast, excitation laser: 805 nm) and with no other light sources, always with a perpendicular angle to the table, and a camera-to-tumor distance of 20 centimeters. The biopsies were taken with biopsy-punch-forceps, hereafter formalin (4%) fixed, paraffin-embedded (i.e. FFPE), and evaluated with histopathological assessment by a pathologist for the presence of cancer tissue - concluding on cancer-positive or negative.
For 5 out of the 16 patients, the resected tumor specimens were cut in half, sliced at the OR, and imaged with the Elevision® imaging system. The specimens underwent routine pathologic processing at the Department of Pathology. […] To evaluate the overlap between fluorescence signal from FG001, uPAR-expression, and tumor tissue, the cryosections were first fluorescently scanned with an Amersham Typhoon^TM scanner from Cytiva and, thereafter, stained using immunohistochemistry for uPAR and Cytokeratin (CK), and hematoxylin and eosin (H&E) stained. […]

SMILES: CC(C)C[C@H](NC(=O)[C@H](Cc1ccc(O)cc1)NC(=O)[C@@H](CCCNC(=N)N)NC(=O)[C@@H](CO)NC(=O)[C@H](Cc1ccccc1)NC(=O)[C@H](CC1CCCCC1)NC(=O)[C@H](CC(=O)O)NC(=O)[C@H](CCC(=O)O)NC(=O)[C@H](CCC(=O)O)NC(=O)CCCCC[N+]1=C(C=CC=CC=CC=C2N(CCCCS(=O)(=O)[O-])c3ccc4ccccc4c3C2(C)C)C(C)(C)c2c1ccc1ccccc21)C(=O)N[C@@H](Cc1c[nH]c2ccccc12)C(=O)N[C@@H](CO)C(=O)O [FG001, ICG-Glu-Glu-AE105] (X1-EED[Cha]F[dS][dR]YLWS-OH; N-terminus and C-terminus assumed)
- Sensitivity for tumor detection verified by histology: 100%
